Tests used:
[1] = target: T1, Ret/MEN2A(C634W) (Homo sapiens, UniProt P07949, C634W); experiment: Ret autophosphorylation and expression in TT cells (Western blotting); format: cell-based; conditions: 24 h
T1 construct: endogenous in cells; host or cells: TT (human medullary thyroid carcinoma)
Protocol: FIG. 2. Effects of Cpd1 on human MTC cell lines harboring MEN2-associated RET mutants. A) Inhibition of Ret autophosphorylation. TT and MZ-CRC-1 cells, expressing respectively RET/MEN2A(C634W) and RET/MEN2B(M918T), were treated with the indicated concentrations of Cpd1, for 24 h. Control cells (C) received the solvent. Whole cell extracts were processed for Western blotting and probed with anti-pTyr and anti-Ret antibodies. […] B) Antiproliferative effect. TT and MZ-CRC-1 cells were treated with increasing concentrations of Cpd 1 for 7 days and then counted with a Coulter Counter.
(§1) The following human medullary thyroid carcinoma (MTC) cell lines were used in this study. The TT cell line derived from a MEN2A-associated MTC characterized by expression of the RET oncogene carrying the mutation C634W. […]
For whole-cell extract preparation, cells were lysed in sodium dodecyl sulfate (SDS) sample buffer (62.5 mM Tris-HCl (pH 6.8), 2% SDS) with 1 mM PMSF, 10 μg/ml pepstatin, 12.5 μg/ml leupeptin, 100 KIU aprotinin, 1 mM sodium orthovanadate, 1 mM sodium molybdate. Protein concentration was determined in appropriately diluted aliquots by the bicinchionic acid (BCA) method (Pierce, Rockford, Ill.), then samples were adjusted to a final concentration of 10% glycerol, 5% β-mercaptoethanol, 0.001% bromophenol blue. […]

[2] = tested on: NIH3T3^MEN2A(C634R) cells; experiment: Reversion of transformed morphologic phenotype of NIH3T3 MEN2A(C634R) transfectants; format: cell-based, murine; conditions: 6 μM, 24 h, phase-contrast microscope
Protocol: FIG. 1. Effects of Cpd 1 on NIH3T3^MEN2A(C634R) transfectants expressing exogenous RET/MEN2A(C634R). […] Cells were exposed to 6 μM Cpd1 for 24 h and then photographed under a phase-contrast microscope (original magnification ×100). B) Antiproliferative effect. NIH3T3^MEN2A(C634R) cells and the parental NIH3T3 cells were treated with increasing concentrations of the drug for 72 h and then counted with a Coulter Counter. […] C) Inhibition of Ret/MEN2A(C634R) autophosphorylation and expression. Cells were treated with solvent (−) or 10 μM Cpd1 (+), for the indicated times. Whole cell-lysates were prepared and subjected to SDS-PAGE and Western blotting with anti-pTyr antibody. After stripping, the filter was reblotted with anti-Ret antibody. Arrows indicate the partial and fully glycosilated forms of the Ret/MEN2A receptor.
as §1, with “C634W. The MZ-CRC-1 cell line derived from MEN2B-associated MTC characterized by expression of the RET oncogene carrying the mutation M918T.” for “C634W.”

[3] = tested on: TT medullary thyroid carcinoma xenografts; experiment: Antitumor activity in nude mice harboring TT xenografts; format: in vivo; conditions: for TWI (tumor weight inhibition): 10 consecutive days
Protocol: FIG. 3. Antitumor activity of Cpd 1 in nude mice harboring TT medullary thyroid carcinoma xenografts. Drug treatment started 25 days after s.c. inoculum of the tumor cells. Cpd 1 was delivered per os at 50 or 100 mg/Kg, twice in a day (2qd), for 10 consecutive days (indicated by arrows). Control mice received the vehicle. […] TWI were 60% (P<0.005) and 80% (P<0.0005) for the 50 mg/Kg and 100 mg/Kg doses, respectively.
All experiments were carried out using female athymic nude CD-1 mice, 8-11-weeks old (Charles River, Calco, Italy). Mice were maintained in laminar flow rooms with constant temperature and humidity. Experimental protocols were approved by the Ethic Committee for Animal Experimentation of the Istituto Nazionale per lo Studio e la Cura dei Tumori (Milan, Italy), according to the United Kingdom Coordinating Committee on Cancer Research Guidelines (Workman P. et al., British Journal of Cancer, 77, 1, 1998).
The MTC cells TT (1.6×10^7 cells) were s.c. inoculated in mice as a cell suspension from in vitro cell culture. Each control or drug-treated group included 8-10 tumors. Tumor cells were injected on day 0, and tumor growth was followed by biweekly measurements of tumor diameters with a Vernier caliper. Tumor weight (TW) was calculated according to the formula: TW (mg)=tumor volume (mm^3)=d^2xD/2, where d and D are the shortest and the longest diameter, respectively. Drug treatment started when tumors were just measurable (mean TW about 50 mg), 25 days after the inoculum of tumor cells. Cpd1 was dissolved in 5% ethanol, 5% Cremophor EL, 90% saline (0.9% NaCl) and delivered per os twice in a day (2qd) by a daily schedule for 10 days. Control mice received the solvent solution.
Drug efficacy was assessed as percentage TW inhibition (TWI % in drug-treated versus control mice expressed as: TWI %=100−(mean TW treated/mean TW control×100). For statistical analysis, TW in control and treated mice were compared on the day of TWI % evaluation, by Student's t test (two-tailed). P values less than 0.05 were considered statistically significant.

T1 sequence (P07949 29-1114 C634W): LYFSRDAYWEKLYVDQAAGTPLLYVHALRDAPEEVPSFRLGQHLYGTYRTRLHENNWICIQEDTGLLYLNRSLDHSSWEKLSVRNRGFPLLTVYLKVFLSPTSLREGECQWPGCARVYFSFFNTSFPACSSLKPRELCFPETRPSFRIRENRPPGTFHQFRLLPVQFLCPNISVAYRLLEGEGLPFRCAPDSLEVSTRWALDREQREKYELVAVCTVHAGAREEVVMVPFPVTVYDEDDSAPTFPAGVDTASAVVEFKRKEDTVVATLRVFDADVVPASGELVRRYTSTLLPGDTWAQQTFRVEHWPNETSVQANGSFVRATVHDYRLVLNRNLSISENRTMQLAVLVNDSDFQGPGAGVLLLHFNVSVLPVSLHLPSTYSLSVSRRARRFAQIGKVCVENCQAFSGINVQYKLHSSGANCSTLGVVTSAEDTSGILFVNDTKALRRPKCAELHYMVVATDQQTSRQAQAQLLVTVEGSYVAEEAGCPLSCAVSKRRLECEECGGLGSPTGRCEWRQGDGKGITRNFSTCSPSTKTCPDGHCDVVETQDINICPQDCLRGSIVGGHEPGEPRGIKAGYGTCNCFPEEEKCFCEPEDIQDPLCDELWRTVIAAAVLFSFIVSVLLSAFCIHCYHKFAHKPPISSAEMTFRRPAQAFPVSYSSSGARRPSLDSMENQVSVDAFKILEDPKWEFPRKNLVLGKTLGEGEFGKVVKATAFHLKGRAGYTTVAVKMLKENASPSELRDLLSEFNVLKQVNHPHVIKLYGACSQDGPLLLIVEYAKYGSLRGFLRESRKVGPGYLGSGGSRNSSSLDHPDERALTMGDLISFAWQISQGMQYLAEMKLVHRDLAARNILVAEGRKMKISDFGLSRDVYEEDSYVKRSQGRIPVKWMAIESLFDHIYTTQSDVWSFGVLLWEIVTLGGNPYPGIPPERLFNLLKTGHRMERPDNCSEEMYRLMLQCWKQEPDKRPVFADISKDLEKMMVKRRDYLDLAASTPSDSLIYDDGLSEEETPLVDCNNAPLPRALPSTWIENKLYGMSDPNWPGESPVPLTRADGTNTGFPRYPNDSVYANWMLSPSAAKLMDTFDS

SMILES: COc1cc2c(cc1OC)/C(=C\c1ccc(O)cc1)C(=O)N2 [Cpd 1, (E)-1,3-dihydro-5,6-dimethoxy-3-[(4-hydroxyphenyl)methylene]-2H-indol-2-one]
- Tyrosine phosphorylation of Ret receptor [1]: dose-dependent inhibition
- Ret receptor expression ([1]; highest concentrations): reduced expression
- Transformed morphologic phenotype [2]: Reversion of the transformed morphologic phenotype
- TWI (tumor weight inhibition) ([3]; 50 mg/Kg per os, 2qd, P<0.005): 60%
- TWI (tumor weight inhibition) ([3]; 100 mg/Kg per os, 2qd, P<0.0005): 80%
- Tumor growth ([3]; 50 or 100 mg/Kg per os, 2qd, 10 days): significant dose-dependent inhibition
- Tumor weight inhibition (TWI) reached ([3]; oral, daily dose of 50-100 mg/Kg (twice a day)): 80%
- Toxicity ([3]; oral, daily dose of 50-100 mg/Kg (twice a day), nude mice): without inducing toxicity

— patent publication US20090130229A1, “Antitumor uses of compound” (Cell Therapeutics, Inc., priority 2002, published 2009)
